In patent US20050159444A1, “Bicyclic unsaturated tertiary amine compounds” (SANKYO COMPANY, LIMITED, priority 2002, published 2005):

These compounds were tested on TNFα production (assay: Inhibition of the production of TNFα in vitro in human whole blood). Conditions: lipopolysaccharide 10 μg/ml, 6 hours at 37° C., ELISA of plasma, read-out: Inhibitory Effect on TNFα Production (in vitro) IC50.
Assay type: cell-based
Procedure: Inhibition of the Production of the Cytokines IL-1β and TNFα In Vitro in Human Whole Blood
This test was performed according to the method of Hartman, et al. [D. A. Hartman, S. J. Ochalski and R. P. Carlson; The effects of anti-inflammatory and antiallergic drugs on cytokine release after stimulation of human whole blood by lipopolysaccharide and zymosan A: Inflamm. Res., 44, 269 (1995)].
Peripheral blood samples were collected in the presence of heparin from healthy adult volunteers. 1000 μl of whole blood was added to an Eppendorf tube to which 2 μl of a dimethyl sulfoxide solution of the test compound had been previously added, after which 10 μl of lipopolysaccharide (E. coli O26: B6 origin, Difco) was added as a stimulant (final concentration of said lipopolysaccharide: 10 μg/ml). This was thoroughly mixed and then incubated for 6 hours at 37° C. in the presence of 5% CO2. At the end of the incubation, the mixture was cooled to 4° C. to stop the reaction, followed immediately by centrifuging for 5 minutes at 14,000 rpm to separate and collect the supernatant plasma. The IL-1β and TNFα produced and released into the plasma were measured using a commercially available enzyme immunoassay (ELISA) kits [Cayman and Genzyme]. The inhibitory effect [IC50 (μM)] on the production of cytokines was determined by the method of least squares from the amounts of the cytokines produced in the presence and absence of the test compound.
With `Fc1ccc(-c2[nH]cc(C3=C[C@@H]4C[C@H](c5ccc(F)cc5)CN4CC3)c2-c2ccncc2)cc1` [Example 3, 2-(4-Fluorophenyl)-4-[(2R,8aS)-2-(4-fluorophenyl)-1,2,3,5,6,8a-hexahydroindolizin-7-yl]-3-(pyridin-4-yl)-1H-pyrrole] the IC50 was 5.1 nM.
`Cc1ccc([C@H]2C[C@H]3C=C(c4c[nH]c(-c5ccc(F)cc5)c4-c4ccncc4)CCN3C2)cc1` [Example 4, 2-(4-Fluorophenyl)-4-[(2R,8aS)-2-(4-methylphenyl)-1,2,3,5,6,8a-hexahydroindolizin-7-yl]-3-(pyridin-4-yl)-1H-pyrrole] gave an IC50 of 7.8 nM.
Compound `CCC[C@H]1C[C@H]2C=C(c3n[nH]c(-c4ccc(F)cc4)c3-c3ccncc3)CCN2C1` [Example 6, 5-(4-Fluorophenyl)-3-[(2S,8aS)-2-propyl-1,2,3,5,6,8a-hexahydroindolizin-7-yl]-4-(pyridin-4-yl)-pyrazole] has an IC50 of 6.3 nM.
`Clc1cccc(-c2[nH]cc(C3=C[C@@H]4C[C@@H](c5ccccc5)CN4CC3)c2-c2ccncc2)c1` [Example 10, 2-(3-Chlorophenyl)-4-[(2S,8aS)-2-phenyl-1,2,3,5,6,8a-hexahydroindolizin-7-yl]-3-(pyridin-4-yl)-1H-pyrrole] showed an IC50 of 7.3 nM.
Work on `Cc1ccc([C@@H]2C[C@H]3C=C(c4c[nH]c(-c5ccc(F)c(F)c5)c4-c4ccncc4)CCN3C2)cc1` [Example 12, 2-(3,4-Difluorophenyl)-4-[(2S,8aS)-2-(4-methylphenyl)-1,2,3,5,6,8a-hexahydroindolizin-7-yl]-3-(pyridin-4-yl)-1H-pyrrole] yielded an IC50 of 5.5 nM.
Work on `COc1ccc([C@@H]2C[C@H]3C=C(c4c[nH]c(-c5ccc(F)cc5)c4-c4ccncc4)CCN3C2)cc1` [Example 16, 2-(4-Fluorophenyl)-4-[(2S,8aS)-2-(4-methoxyphenyl)-1,2,3,5,6,8a-hexahydroindolizin-7-yl]-3-(pyridin-4-yl)-1H-pyrrole] yielded an IC50 of 5.4 nM.
With `Fc1ccc(-c2[nH]cc(C3=C[C@@H]4C[C@@H](c5ccccc5)CN4CC3)c2-c2ccncc2)cc1Cl` [Example 46, 2-(3-Chloro-4-fluorophenyl)-4-[(2S,8aS)-2-phenyl-1,2,3,5,6,8a-hexahydroindolizin-7-yl]-3-(pyridin-4-yl)-1H-pyrrole] the IC50 was 2.1 nM.

Each compound was assayed on TNFα production (assay: Inhibition of the production of TNFα in vivo (lipopolysaccharide-injected mice)). Conditions: Mus musculus, oral, 30 minutes before lipopolysaccharide injection, plasma TNFα 1 hour after LPS, Balb/c mice, average vs control group, read-out: Inhibition Rate (%) of TNFα Production (in vivo).
Procedure: Inhibition of the Production of TNFα In Vivo
This test was performed according to the method of Ochalaki et al. [S. J. Ochalaki, D. A. Hartman, M. T. Belfast, T. L. Walter, K. B. Glaser and R. P. Carlson; Inhibition of endotoxin-induced hypothermia and serum TNFα levels in CD-1 mice by various pharmacological agents: Agents Actions 39, C52-C54 (1998)].
The production of TNFα was induced in mice by intravenous injection of lipopolysaccharide (E. coli O26: B6 origin, Difco) which was prepared to a concentration of 0.045 mg/ml using physiological saline. The saline preparation of lipopolysaccharide was administered at the rate of 10 ml/1 kg of body weight into the caudal vein of Balb/c mice (males, age 5-7 weeks, body weight: approx. 22 g, Japan Charles River) which had been fasted overnight starting the day before the experiment. One hour after administration, the mice were laparotomized under ether anaesthesia and blood was collected from the abdominal vena cava. Blood collection was performed using a 1 ml volume disposable syringe equipped with a 23G needle which had been moistened with heparin on the inside wall. Following blood collection, the blood was immediately transferred to a 1.5 ml volume Eppendorf tube and centrifuged at 4° C. and 14,000 rpm to separate the plasma. This plasma was then stored at −20° C. until measurement of TNFα.
The measurement of the amount of TNFα was performed with a enzyme immunoassay (ELISA) kit (Mouse TNFα ELISA KIT, Genzyme).
To determine the inhibitory activity of the test compounds, each test compound was suspended in 0.5% tragacanth solution ad then administered orally to the mice at a rate of 10 ml/1 kg of body weight 30 minutes before injection of the lipopolysaccharide, and the average inhibition rates were calculated versus a control group.
`Fc1ccc(-c2[nH]cc(C3=C[C@@H]4C[C@@H](c5ccccc5)CN4CC3)c2-c2ccncc2)cc1F` [Example 8, 2-(3,4-Difluorophenyl)-4-[(2S,8aS)-2-phenyl-1,2,3,5,6,8a-hexahydroindolizin-7-yl]-3-(pyridin-4-yl)-1H-pyrrole] was tested, and the inhibition in vivo at 5 mg/kg was 91%.
Work on `Clc1cccc(-c2[nH]cc(C3=C[C@@H]4C[C@@H](c5ccccc5)CN4CC3)c2-c2ccncc2)c1` [Example 10, 2-(3-Chlorophenyl)-4-[(2S,8aS)-2-phenyl-1,2,3,5,6,8a-hexahydroindolizin-7-yl]-3-(pyridin-4-yl)-1H-pyrrole] yielded an inhibition in vivo at 5 mg/kg of 91%.
Work on `COc1ccc([C@@H]2C[C@H]3C=C(c4c[nH]c(-c5ccc(F)cc5)c4-c4ccncc4)CCN3C2)cc1` [Example 16, 2-(4-Fluorophenyl)-4-[(2S,8aS)-2-(4-methoxyphenyl)-1,2,3,5,6,8a-hexahydroindolizin-7-yl]-3-(pyridin-4-yl)-1H-pyrrole] yielded an inhibition in vivo at 5 mg/kg of 90%.
`COc1ccc([C@@H]2C[C@H]3C=C(c4c[nH]c(-c5cccc(Cl)c5)c4-c4ccncc4)CCN3C2)cc1` [Example 23, 2-(3-Chlorophenyl)-4-[(2S,8aS)-2-(4-methoxyphenyl)-1,2,3,5,6,8a-hexahydroindolizin-7-yl]-3-(pyridin-4-yl)-1H-pyrrole] was tested, and the inhibition in vivo at 5 mg/kg was 90%.
`C1=C(c2c[nH]c(-c3ccccc3)c2-c2ccncc2)CCN2C[C@H](c3ccccc3)C[C@@H]12` [Example 25, 2-Phenyl-4-[(2S,8aS)-2-phenyl-1,2,3,5,6,8a-hexahydroindolizin-7-yl]-3-(pyridin-4-yl)-1H-pyrrole] showed an inhibition in vivo at 5 mg/kg of 92%.
In the case of `CCOc1ccc([C@@H]2C[C@H]3C=C(c4c[nH]c(-c5ccc(F)cc5)c4-c4ccncc4)CCN3C2)cc1` [Example 30, 4-[(2S,8aS)-2-(4-Ethoxyphenyl)-1,2,3,5,6,8a-hexahydroindolizin-7-yl]-2-(4-fluorophenyl)-3-(pyridin-4-yl)-1H-pyrrole], the inhibition in vivo at 5 mg/kg is reported as 90%.
For `COc1cccc([C@@H]2C[C@H]3C=C(c4c[nH]c(-c5ccc(F)c(F)c5)c4-c4ccncc4)CCN3C2)c1` [Example 31, 2-(3,4-Difluorophenyl)-4-[(2S,8aS)-2-(3-methoxyphenyl)-1,2,3,5,6,8a-hexahydroindolizin-7-yl]-3-(pyridin-4-yl)-1H-pyrrole], the inhibition in vivo at 5 mg/kg was 92%.
`Cc1ccc([C@@H]2C[C@H]3C=C(c4c[nH]c(-c5ccc(F)c(F)c5)c4-c4ccncc4)CCN3C2)cc1C` [Example 41, 2-(3,4-Difluorophenyl)-4-[(2S,8aS)-2-(3,4-dimethylphenyl)-1,2,3,5,6,8a-hexahydroindolizin-7-yl]-3-(pyridin-4-yl)-1H-pyrrole] showed an inhibition in vivo at 5 mg/kg of 91%.
With `Fc1ccc(-c2[nH]cc(C3=C[C@@H]4C[C@@H](c5ccccc5)CN4CC3)c2-c2ccncc2)cc1Cl` [Example 46, 2-(3-Chloro-4-fluorophenyl)-4-[(2S,8aS)-2-phenyl-1,2,3,5,6,8a-hexahydroindolizin-7-yl]-3-(pyridin-4-yl)-1H-pyrrole] the inhibition in vivo at 5 mg/kg was 93%.

These compounds were tested on adjuvant-induced arthritis (assay: Activity in preventing the development of adjuvant-induced arthritis in vivo). Conditions: dose: 10 mg/kg, oral once a day from day 0 to day 20; measured on day 21; Lewis rat.
Procedure: Activity in Preventing the Development of Adjuvant-Induced Arthritis In Vivo The test was performed according to the method described by Winder et al. (Arthritis Rheum., 12, 472-482, 1969). Heat-killed dried Mycobacterium butyricum (Difco Laboratories, Lot 679123) was ground on an agate mortar, and was then suspended in dry-sterilised liquid paraffin (first grade, Wako Pure Chemical Industries, Ltd.) to make a 2 mg/ml suspension. The resulting suspension was then sonicated and used as an adjuvant. Arthritis was induced by the intradermal injection of the adjuvant (100 μg of heat killed dried bacterium/0.05 ml of paraffin/paw) into the heel of the right hind paw of a Lewis rat (male, age 9 weeks, 190 g, Japan Charles River). The rats were assigned to groups of 5 animals each. […] The volumes of the right hind paw (adjuvant-injected paw) and left hind paw (non-injected paw) were measured on days 3, 5, 7, 10, 13, 15, 18 and 21 using a Plethysmometer™ (Ugo Basile), the hind paws being soaked from the toe to the hairline in the bath of the Plethysmometer™. The volumes of the swollen feet (adjuvant-injected right hind foot volume—non-injected left hind foot volume) were calculated. The percent inhibition of swelling of the injected foot of the treated animals as compared to that of the control animals on day 21 was calculated as follows. [formula]
For `Fc1ccc(-c2[nH]cc(C3=C[C@@H]4C[C@@H](c5ccccc5)CN4CC3)c2-c2ccncc2)cc1` [Example 2, 2-(4-Fluorophenyl)-4-[(2S,8aS)-2-phenyl-1,2,3,5,6,8a-hexahydroindolizin-7-yl]-3-(pyridin-4-yl)-1H-pyrrole], the “Inhibition rate (%) of swelling of adjuvant-injected foot” value was 84%.
`Fc1ccc(-c2[nH]nc(C3=C[C@@H]4C[C@@H](c5ccccc5)CN4CC3)c2-c2ccncc2)cc1` [Example 7, 5-(4-Fluorophenyl)-3-[(2S,8aS)-2-phenyl-1,2,3,5,6,8a-hexahydroindolizin-7-yl]-4-(pyridin-4-yl)pyrazole] was tested, and the “Inhibition rate (%) of swelling of adjuvant-injected foot” value was 81%.
